The text below walks through data of patent US20120108641A1, “ANTITUMOR COMBINATION INCLUDING AVE8062 AND SORAFENIB” (SANOFI, priority 2009, published 2012).

Several values for one entry are separate records, joined by “and”; a condition that tells them apart may be missing. Equal values may be shown once. Read-outs that look alike come from different tables or passages of the source.

Series [1] has as its system NCI-H460 human non-small cell lung tumour. The series is described as follows: Study 1: sorafenib administered simultaneously with AVE8062, antitumour activity. The format is in vivo, female SCID mice. To be noted: AVE8062 22.3 mg/kg per injection i.v. days 9, 13. From the text: (§1) A product is considered to be active if the log10 cell kill is greater than or equal to 0.7.
(§2) The activity in this case is acknowledged for a net log cell kill that is positive (>0). A cytostatic activity corresponds to a net log cell kill of 0, that is to say that the treatment time is equal to the duration of the antitumour effect.
(§3) In the case of an early tumour treatment, the implanted animals are distributed randomly in various groups which are, or are not (controls), intended to receive the treatment(s). […] The animals are observed and weighed every day. A dose which induces a weight loss of 20% or more at the lowest point (average of the group) or a mortality of 10% or more is considered to be toxic. The tumour activity is evaluated at the highest non-toxic dose, or at the highest dose tested, within the context of a non-cytotoxic agent.
(§4) The tumours are measured 2 or 3 times a week until the tumour reaches approximately 2 g or until the animal dies, if this occurs before the tumour reaches 2 g. The animals are autopsied when they are sacrificed.
(§5) The antitumor activity is determined in accordance with various recorded parameters, such as the dose (mg/kg), the method of administration, the administration time, the toxicity and the log10 cell kill, which depends on the tumour growth delay and also on the tumour doubling time.
(§6) Within the context of the following studies, the AVE8062, in hydrochloride form, is formulated in water with 0.9% NaCl.
Study 1: Sorafenib Administered Simultaneously with AVE8062 (Table I)
The AVE8062 was administered intravenously on days 9 and 13 post tumour implantation. The sorafenib was administered orally from day 9 to day 24. When the two agents were administered in combination, the same schedules were used as for the agents alone, the combination of the two agents having been carried out simultaneously on days 9 and 13.

Series [2] shares this test system. In words: Study 2: sorafenib administered 1 h after AVE8062, antitumour activity. The format is in vivo, female SCID mice.
Source text: as §1, §3, §4, §5, §6
Study 2: Sorafenib Administered 1 h after AVE8062 in the Combination (Table II)
(§7) The AVE8062 was administered intravenously on days 10 and 14 post tumour implantation. The sorafenib was administered orally from day 10 to day 14. The two agents were administered in combination, according to the same schedules as those used for the agents alone, but the administration of sorafenib having been staggered one hour after the administration of the AVE8062.

For series [3] the test system is unchanged. In words: Study 3: sorafenib administered 24 h after AVE8062, antitumour activity. The format is in vivo, female SCID mice.
Source text: as §1, §2, §3, §4, §5, §6
Study 3: Sorafenib Administered 24 h after AVE8062 in the Combination (Table III)
The AVE8062 was administered intravenously on days 9 and 14 post implantation of the NCI-H460 pulmonary tumour in female SCID mice. The sorafenib was administered orally from day 9 to day 20. When the 2 agents were administered in combination, the same schedules were used as for the agents alone, but the administrations of sorafenib were started 24 hours after that of AVE8062.

The procedure of series [4]: as §3, §6, §7
Series [5] can be described thus: Study 3: toxicity, highest non-toxic dose. It counts as in vivo, female SCID mice. Particulars: Study 3, AVE8062 alone i.v. days 9, 14. The protocol:
The animals are observed and weighed every day.
The AVE8062 was administered intravenously on days 9 and 14 post implantation of the NCI-H460 pulmonary tumour in female SCID mice.

Where [6] appears, read: AVE8062 22.3 mg/kg/admin i.v. days 10, 14.
Setting [7] is: AVE8062 22.3 mg/kg per injection i.v. days 9, 14.
Where [8] appears, read: sorafenib 100.0 mg/kg/admin p.o. days 10-14.
Where [9] appears, read: sorafenib 100.0 mg/kg per injection p.o. days 9-20.

As for `COc1ccc(/C=C\c2cc(OC)c(OC)c(OC)c2)cc1NC(=O)[C@@H](N)CO` [AVE8062, (Z)—N-[2-methoxy-5-[2-(3,4,5-trimethoxyphenyl)vinyl]phenyl]-L-serinamide], in series [1], the CR is 0/6, the Observations entry is listed as “Inactive”, the PR is 0/6 and the log cell kill is 0.6. Also, the “net log cell kill” value in series [1] is −0.1. In series [2] (setting [6]), the Observations result was “HNTD - active”, the Regressions complete is 0/5, the “T − C” value was found to be 5.8 days and the log cell kill amounted to 1.1. For the same compound, the Regressions partial result in series [2] (AVE8062 22.3 mg/kg/admin i.v. days 10, 14, 22.3 mg/kg) is “without inducing tumour regression and 0/5”. In addition, in series [3] (setting [7]), the CR is given as 0/6, the Observations result was “Active”, the PR is 0/6 and the “gross log cell kill” value is given as 1.7. The “net log cell kill” value in series [3] (setting [7]) is given as 0.3. For the same compound, the “Mortality (day of death)” value in series [4] (setting [6]) was 0/5. Besides, the “% BWC (day of lowest point)” value in series [4] (AVE8062 22.3 mg/kg/admin i.v. days 10, 14, lowest point day 21) is reported as −3.2 (21) %. Further, the “highest non-toxic dose (HNTD)” value in series [4] (Study 2, AVE8062 alone i.v. days 10, 14) came to 22.3 mg/kg per injection. Further, the “highest non-toxic dose (HNTD)” value in series [5] is on record as 36 mg/kg per injection.
In the case of `CNC(=O)c1cc(Oc2ccc(NC(=O)Nc3ccc(Cl)c(C(F)(F)F)c3)cc2)ccn1` [Sorafenib, 4-[4-[[4-chloro-3-(trifluoromethyl)phenyl]carbamoylamino]phenoxy]-N-methylpyridine-2-carboxamide], in series [2] (setting [8]), the Observations entry was “HDT - Active”, the Regressions complete was 0/6, the Regressions partial is listed as 0/6 and the “T − C” value turned out to be 6.1 days. In addition, the log cell kill in series [2] (setting [8]) is 1.1. Further, in series [3] (setting [9]), the CR is recorded as 0/6, the Observations result is listed as “HDT - no cytostasis”, the PR is 0/6 and the “gross log cell kill” value was found to be 2.4. Further, the “net log cell kill” value in series [3] (setting [9]) is −0.4. The “Mortality (day of death)” value in series [4] (setting [8]) is given as 0/6.
